Reference: US5624941A, “Pyrazole derivatives, method of preparing them and pharmaceutical compositions in which they are present” (Sanofi, priority 1992, dated 1997)

Key:
cannabinoid receptors = target: T1, cannabinoid receptors (Mus musculus, UniProt P47746); assay: antagonism of hypothermia induced by WIN 55 212-2 in mice; type: in vivo
T1 construct: from tissue; host or cells: whole living mouse (in vivo hypothermia test)

[1] = penetration of the blood-brain barrier / central nervous system; type: in vivo
rats = assay: test of the central memory in rats (Perio et al.); type: in vivo; conditions: subcutaneous administration

T1 sequence (P47746 whole entry): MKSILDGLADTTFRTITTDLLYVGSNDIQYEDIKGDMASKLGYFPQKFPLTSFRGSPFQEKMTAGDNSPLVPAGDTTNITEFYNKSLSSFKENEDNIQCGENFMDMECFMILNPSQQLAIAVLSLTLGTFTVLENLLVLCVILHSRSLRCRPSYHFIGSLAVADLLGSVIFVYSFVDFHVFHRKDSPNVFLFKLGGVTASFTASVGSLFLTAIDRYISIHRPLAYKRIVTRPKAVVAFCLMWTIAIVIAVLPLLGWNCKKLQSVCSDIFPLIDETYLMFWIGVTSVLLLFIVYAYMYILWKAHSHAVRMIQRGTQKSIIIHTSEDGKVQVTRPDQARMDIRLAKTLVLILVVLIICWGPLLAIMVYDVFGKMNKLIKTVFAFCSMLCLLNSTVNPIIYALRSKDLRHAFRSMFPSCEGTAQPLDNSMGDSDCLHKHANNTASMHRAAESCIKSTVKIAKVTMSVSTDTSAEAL

**Q.** For `Cc1c(C(=O)NN2CCCCC2)nn(-c2ccc(Cl)cc2Cl)c1-c1ccc(Cl)cc1` [N-piperidino-5-(4-chlorophenyl)-1-(2,4-dichlorophenyl)-4-methyl-pyrazole-3-carboxamide], which “duration of action in the hypothermia test” value (cannabinoid receptors; mice, after oral administration of 3 mg/kg) is on record?
**A.** 8 to 10 h

**Q.** What about the “ED50, antagonism of WIN 55 212-2 induced hypothermia” value (cannabinoid receptors; mice, i.p.) of the same compound?
**A.** 0.3 mg/kg

**Q.** What about the “ED50, antagonism of WIN 55 212-2 induced hypothermia” value (cannabinoid receptors; mice, per os) of the same compound?
**A.** 0.4 mg/kg

**Q.** And the “activity upon oral administration” value (cannabinoid receptors; oral)?
**A.** active upon oral administration

**Q.** What about the “penetration in the central nervous system” value ([1]; confirmed by antagonism of agonist-induced hypothermia) of the same compound?
**A.** good penetration

**Q.** And the “penetration of the blood-brain barrier” value ([1]; in vivo)?
**A.** penetrates the blood-brain barrier

**Q.** And the “memory capacities of rats in the test of the central memory” value (rats)?
**A.** improves the memory capacities of rats

**Q.** And the toxicity (toxicity)?
**A.** compatible with its use as a psychotropic drug
